Tested on: Plasmodium berghei
Assay: Luciferase/luciferin-expressing antifolate-resistant parasites were used to infect a culture of HepG2 cells that were pre-incubated with compounds. Infected hepatocytes emit light due to the luciferase reaction. Assay results are presented as the percent inhibition of light emission compared to control. […]
Assay type: functional
Conditions: sporozoite; for IC90: read-out: LUCIFERASE INFECTION ASSAY - IC90
[1] = read-out: LUCIFERASE INFECTION ASSAY - IC50

Row | Structure (SMILES) | IC90 [µM] | further results
1 | COc1ccc(-c2cnc3ccc(Cc4ccc(F)cc4)nn23)cc1OC | 6.11 | IC50 (HEPG2TOX_HILL_SLOPE 7.18, HEPG2TOX_R_SQUARED 0.189, PBLUC_HILL_SLOPE 3.8, PBLUC_R_SQUARED 0.0747, read-out: LUCIFERASE INFECTION ASSAY - IC50): 3.43 µM
2 | Brc1cnc(N2CCN(C(c3ccccc3)(c3ccccc3)c3ccccc3)CC2)nc1 | > 6.8 | IC50 (FFLUC_HILL_SLOPE 9.83, FFLUC_R_SQUARED 0.0243, read-out: LUCIFERASE INFECTION ASSAY - IC50): > 6.8 µM
3 | Clc1ccccc1C(CNc1ncnc2sccc12)N1CCCC1 (stereo unspecified) | > 10 | IC50 (HEPG2TOX_HILL_SLOPE 0.371, HEPG2TOX_R_SQUARED 0.706, PBLUC_HILL_SLOPE 3.78, PBLUC_R_SQUARED 0.473, read-out: LUCIFERASE INFECTION ASSAY - IC50): 7.08 µM
4 | Cc1cc(C(=O)COc2cccnc2[N+](=O)[O-])c(C)n1-c1ccc2c(c1)OCO2 | > 10 | IC50 (PBLUC_HILL_SLOPE 1.7, PBLUC_R_SQUARED 0.197, read-out: LUCIFERASE INFECTION ASSAY - IC50): 8.75 µM
5 | CCN(CC)S(=O)(=O)c1ccc(C)c(NC(=O)CN(Cc2c(F)cccc2Cl)C2CC2)c1 | > 10 | IC50 [1]: > 10 µM
6 | COc1ccc2[nH]c3c(NCCC4=CCCCC4)ncnc3c2c1 | 5.19 | IC50 (HEPG2TOX_HILL_SLOPE 2.01, HEPG2TOX_R_SQUARED 0.344, PBLUC_HILL_SLOPE 1.69, PBLUC_R_SQUARED 0.738, read-out: LUCIFERASE INFECTION ASSAY - IC50): 1.42 µM
7 | CC(NC(=O)c1cn(C)c2ccccc12)c1ccccn1 (stereo unspecified) | > 2 | IC50 [1]: > 2 µM
8 | O=c1c2ccccc2sc2nc(-c3ccccc3)n(Cc3ccccc3)c(=O)c12 | > 8.32 | IC50 [1]: > 8.32 µM
9 | CN(c1ccccc1)c1cc(C(=O)Nc2ccccc2)ncn1 | 0.681 | IC50 (FFLUC_HILL_SLOPE 2.25, FFLUC_R_SQUARED 0.879, PBLUC_HILL_SLOPE 0.724, PBLUC_R_SQUARED 0.686, read-out: LUCIFERASE INFECTION ASSAY - IC50): 0.0327 µM
10 | CC1CC(C)CN(Cc2ccccc2CNC(=O)Nc2nnc(C3CC3)s2)C1 (stereo unspecified) | > 10 | IC50 (HEPG2TOX_HILL_SLOPE 1.87, HEPG2TOX_R_SQUARED 0.778, PBLUC_HILL_SLOPE 3.71, PBLUC_R_SQUARED 0.683, read-out: LUCIFERASE INFECTION ASSAY - IC50): 6.46 µM
11 | CCNC(=O)c1nn(Cc2ccccc2)c2c1CC(NCC(C)C)CC2 (stereo unspecified) | > 9.31 | IC50 (PBLUC_HILL_SLOPE 1.56, PBLUC_R_SQUARED 0.224, read-out: LUCIFERASE INFECTION ASSAY - IC50): 6.64 µM
12 | CC(=N)C(C#N)c1csc(Nc2cc(C)cc(C)c2)n1 (stereo unspecified) | > 10 | IC50 (FFLUC_HILL_SLOPE 2.53, FFLUC_R_SQUARED 0.471, read-out: LUCIFERASE INFECTION ASSAY - IC50): > 10 µM
13 | CC(Sc1nc(=O)c2c3c(sc2[nH]1)CCCC3)C(=O)Nc1ccc2ccccc2c1 (stereo unspecified) | > 10 | IC50 (HEPG2TOX_HILL_SLOPE 0.165, HEPG2TOX_R_SQUARED 0.248, read-out: LUCIFERASE INFECTION ASSAY - IC50): > 10 µM
14 | Cc1ccc(-c2nnc(SCCOc3ccccc3C)nc2-c2ccc(C)cc2)cc1 | > 10 | IC50 (HEPG2TOX_HILL_SLOPE 0.184, HEPG2TOX_R_SQUARED 0.53, PBLUC_HILL_SLOPE 4.7, PBLUC_R_SQUARED 0.148, read-out: LUCIFERASE INFECTION ASSAY - IC50): 8.99 µM
15 | Cc1ccc(-n2c(Sc3ccc([N+](=O)[O-])c4cnccc34)nnc2-c2ccccc2)cc1C | > 10 | IC50 (HEPG2TOX_HILL_SLOPE 0.296, HEPG2TOX_R_SQUARED 0.243, PBLUC_HILL_SLOPE 1.34, PBLUC_R_SQUARED 0.0191, read-out: LUCIFERASE INFECTION ASSAY - IC50): > 10 µM
16 | Cc1ccc(N(CC(=O)Nc2ccc(F)cc2F)C2=NC(=O)CS2)cc1 | 9.47 | IC50 (PBLUC_HILL_SLOPE 3.93, PBLUC_R_SQUARED 0.513, read-out: LUCIFERASE INFECTION ASSAY - IC50): 5.41 µM
17 | Cc1cnc(NC(=O)Cc2ccc3c(c2)CCC(C)(C)O3)s1 | 4.6 | IC50 (PBLUC_HILL_SLOPE 9.94, PBLUC_R_SQUARED 0.592, read-out: LUCIFERASE INFECTION ASSAY - IC50): 3.68 µM
18 | Cc1cc(C)c(C(=O)CSc2cc(C)c3cccc(C)c3n2)c(C)c1 | > 10 | IC50 (FFLUC_HILL_SLOPE 3.04, FFLUC_R_SQUARED 0.417, HEPG2TOX_HILL_SLOPE 2.16, HEPG2TOX_R_SQUARED 0.191, read-out: LUCIFERASE INFECTION ASSAY - IC50): > 10 µM
19 | Clc1ccc2nc(-c3cnn(-c4ccccc4)c3)[nH]c2c1 | 7.38 | IC50 (HEPG2TOX_HILL_SLOPE 1.09, HEPG2TOX_R_SQUARED 0.847, PBLUC_HILL_SLOPE 23.0, 2.49, PBLUC_R_SQUARED 0.431, 0.566, read-out: LUCIFERASE INFECTION ASSAY - IC50): 5.39 µM

Row | Structure (SMILES) | IC90 [µM] | further results
20 | O=C1C=CC(=O)N1Cc1cccs1 | 7.49 | IC50 (HEPG2TOX_HILL_SLOPE 35.1, HEPG2TOX_R_SQUARED 0.828, PBLUC_HILL_SLOPE 12.7, PBLUC_R_SQUARED 0.168, read-out: LUCIFERASE INFECTION ASSAY - IC50): 6.3 µM
21 | O=C(O)c1cnc2cc3c(cc2c1O)OCCO3 | > 10 | IC50 (PBLUC_HILL_SLOPE 2.36, 2.10, PBLUC_R_SQUARED 0.249, 0.136, read-out: LUCIFERASE INFECTION ASSAY - IC50): 7.92 µM
22 | CCOc1cc(C(=O)N/N=C/c2c(C)[nH]c3ccccc23)cc(OCC)c1OCC | > 10 | IC50 (HEPG2TOX_HILL_SLOPE 8.54, 2.60, HEPG2TOX_R_SQUARED 0.0840, 0.979, PBLUC_HILL_SLOPE 9.58, PBLUC_R_SQUARED 0.194, read-out: LUCIFERASE INFECTION ASSAY - IC50): 9.1 µM
23 | Cc1ccc(C2=NN=C/C2=N\Nc2cc(Cl)cc(Cl)c2)cc1 | 3.57 | IC50 (FFLUC_HILL_SLOPE 4.14, FFLUC_R_SQUARED 0.778, HEPG2TOX_HILL_SLOPE 3.13, HEPG2TOX_R_SQUARED 0.962, PBLUC_HILL_SLOPE 34.3, PBLUC_R_SQUARED 0.21, read-out: LUCIFERASE INFECTION ASSAY - IC50): 3.34 µM
24 | CS(=O)(=O)Nc1cccc(-c2cn3c(-c4ccc5c(c4)OCO5)cnc3cn2)c1 | > 8.08 | IC50 (PBLUC_HILL_SLOPE 1.71, PBLUC_R_SQUARED 0.507, read-out: LUCIFERASE INFECTION ASSAY - IC50): 6.08 µM
25 | O=[N+]([O-])c1ccc(S(=O)(=O)c2ccc(C(F)(F)F)cn2)nc1 | 6.39 | IC50 (FFLUC_HILL_SLOPE 150, FFLUC_R_SQUARED 0.542, HEPG2TOX_HILL_SLOPE 3, HEPG2TOX_R_SQUARED 0.956, PBLUC_HILL_SLOPE 6.23, PBLUC_R_SQUARED 0.341, read-out: LUCIFERASE INFECTION ASSAY - IC50): 4.49 µM
26 | Clc1ccc2c(c1)nnc1nnnn12 | 1.91 | IC50 [1]: 1.66 µM
27 | Cc1ccc(-c2nc(CN3C(=O)NC4(CCCCCC4)C3=O)cs2)cc1 | > 10 | IC50 (PBLUC_HILL_SLOPE 31.5, PBLUC_R_SQUARED 0.344, read-out: LUCIFERASE INFECTION ASSAY - IC50): 9.91 µM
28 | O=C(c1cccc(C(F)(F)F)c1)N1CCc2c([nH]c3ccccc23)C1C(F)(F)F (stereo unspecified) | > 8 | IC50 (FFLUC_HILL_SLOPE 6.83, FFLUC_R_SQUARED 0.392, HEPG2TOX_HILL_SLOPE 7.06, HEPG2TOX_R_SQUARED 0.861, PBLUC_HILL_SLOPE 3.46, PBLUC_R_SQUARED 0.38, read-out: LUCIFERASE INFECTION ASSAY - IC50): 4.59 µM
29 | O=C1COc2cc(C(=O)Oc3ccc4ccccc4c3Br)ccc2N1 | > 10 | IC50 [1]: > 10 µM
30 | O=C1NC(c2c(-c3ccccc3)[nH]c3ccccc23)Nc2ccccc21 (stereo unspecified) | 1.21 | IC50 (HEPG2TOX_HILL_SLOPE 1.35, HEPG2TOX_R_SQUARED 0.878, PBLUC_HILL_SLOPE 2.2, PBLUC_R_SQUARED 0.804, read-out: LUCIFERASE INFECTION ASSAY - IC50): 0.447 µM
31 | Cc1ccc(-n2c(C)cc(-c3csc(NC(=O)c4cccc(S(=O)(=O)N5CCc6ccccc65)c4)n3)c2C)cc1 | > 10 | IC50 (FFLUC_HILL_SLOPE 15.8, FFLUC_R_SQUARED 0.357, read-out: LUCIFERASE INFECTION ASSAY - IC50): > 10 µM
32 | Cc1ccc(N2C(=O)c3ccccc3C(C=NNC(=O)c3ccc(CSc4ccc(Cl)cc4)cc3)C2=O)cc1C (stereo unspecified) | > 10 | IC50 (FFLUC_HILL_SLOPE 1.61, FFLUC_R_SQUARED 0.665, HEPG2TOX_HILL_SLOPE 1.11, HEPG2TOX_R_SQUARED 0.878, read-out: LUCIFERASE INFECTION ASSAY - IC50): > 10 µM
33 | CCS(=O)(=O)c1ncc(Cl)c(C(=O)Nc2ccc(C(=O)OC)cc2)n1 | 4.66 | IC50 (HEPG2TOX_HILL_SLOPE 3.26, HEPG2TOX_R_SQUARED 0.643, PBLUC_HILL_SLOPE 9.13, PBLUC_R_SQUARED 0.474, read-out: LUCIFERASE INFECTION ASSAY - IC50): 3.67 µM
34 | Clc1cncc2c1Sc1ccccc1N2 | > 14.1 | IC50 [1]: 14 µM
35 | COc1ccc(OC)c(-c2cs/c(=N\c3cccc(C)c3C)n2/N=C/c2ccc(C#N)cc2)c1 | > 10 | IC50 (HEPG2TOX_HILL_SLOPE 2.44, HEPG2TOX_R_SQUARED 0.954, PBLUC_HILL_SLOPE 4.56, PBLUC_R_SQUARED 0.492, read-out: LUCIFERASE INFECTION ASSAY - IC50): 6.34 µM
36 | COc1cccc(Oc2ccc(C(F)(F)F)cc2NC(=O)c2ccc(NC(=O)C3CC3)s2)c1 | > 10 | IC50 (PBLUC_HILL_SLOPE 3.5, PBLUC_R_SQUARED 0.215, read-out: LUCIFERASE INFECTION ASSAY - IC50): 6.65 µM
37 | CN1c2ccsc2C(=O)/C(=C/Nc2cccc(Cl)c2)S1(=O)=O | > 9.3 | IC50 [1]: > 9.3 µM
38 | O=C(CN1c2cccc3cccc(c23)S1(=O)=O)Nc1ccc(-c2nc3ccccc3[nH]2)cc1 | > 10 | IC50 [1]: > 10 µM

From ChEMBL document CHEMBL4483862, “Open-source discovery of chemical leads for next-generation chemoprotective antimalarials” (2018)
